Assays:
insects = conditions: about times that of natural pyrethrum; cited from earlier work
[1] = tested on: lettuce, cucumber, dwarf French beans, tomato or broad bean; assay: Phytotoxicity on foliage; format: in vivo; conditions: 100 p.p.m. on foliage
From the text: Phytotoxicity is an important feature when the insecticide is applied to foliage.

Row | SMILES | activity relative to natural pyrethrum (insects) | phytotoxicity [1]
1 | CC(C)=CC1C(C(=O)OCc2coc(Cc3ccccc3)c2)C1(C)C (centres unmarked) [Resmethrin, 5-benzyl-3-furylmethylchrysanthemumate] | about 20 times | –
2 | CC(C)C(C(=O)OC(C#N)c1cccc(Oc2ccccc2)c1)c1ccc(Cl)cc1 (stereo not drawn) [fenvalerate, α-cyano-3-phenoxy-benzyl 2-(4-chlorophenyl)-3-methylbutyrate] | – | phytotoxicity was observed

Source: US4372970A, “Benzofuran acetic acid esters and their arthropocidal compositions” (Shell Internationale Research Maatschappij B.V., priority 1979, dated 1983)
